According to publication PMC4661905, “A Mechanism of O-Demethylation of Aristolochic Acid I by Cytochromes P450 and Their Contributions to This Reaction in Human and Rat Livers: Experimental and Theoretical Approaches” (International Journal of Molecular Sciences, 2015):

How the values were obtained:
CYP1A1 [1] = experiment: Contribution of CYP to AAI oxidation in human liver; assay type: in vitro ADME; conditions: from Supersomal velocities with cytochrome b5 and CYP expression levels
Description: (§1) In order to calculate the contributions of individual CYPs to AAI oxidation in human and rat livers, we utilized the velocities of AAI oxidation to AAIa by the Supersomal CYP enzyme systems containing cytochrome b5 (Figure 2) in the combination with the data on the expression levels of CYPs in human and rat livers. The contributions of these enzymes were calculated by relative activity factor because the activities of CYP in Supersomes™ should be considered in addition to the relative contents of CYPs in the livers. Therefore, the contributions of each CYP that oxidizes AAI in livers were calculated by dividing of the relative activity of each of such CYPs oxidizing AAI [r.a.cypi] (rate of AAI oxidation multiplied by amounts of this CYP in tissues examined), by the total relative activities (∑[r.a.cypi]) of all CYPs oxidizing this substrate. Of human liver CYPs, CYP3A4 is the major enzyme present in this human organ (~30% of the CYP hepatic complement), followed by CYP2C9 and 1A2 (~15% and ~13%, respectively), while CYP2C19, 2E1 2A6, 2D6, 2C8, and 3A5 are present in human liver in levels of the range of ~8.5%–~2.5% of the liver CYPs (see [58] for an overview). CYPs of the 2C subfamily (CYP2C6, 2C11, 2C12, and 2C13) are the major enzymes expressed in rat livers accounting of ~55% of the CYP complement. Of the CYP2C complement, ~50% and ~20% correspond to CYP2C11 and 2C6, respectively. Of the other CYPs, CYP2E1, 3A, 2D, 2A, 2B, and 1A enzymes are also present in rat livers, expressed in levels of ~15%, ~10%, ~7%, ~6%, ~5%, and ~2%, respectively.

CYP1A2 = experiment: as above; assay type: in vitro ADME; conditions: from Supersomal velocities with cytochrome b5 and CYP expression levels
Description: as §1

CYP1B1 = experiment: as above; assay type: in vitro ADME
Description: as §1

CYP2B6 = experiment: as above; assay type: in vitro ADME
Description: as §1

CYP2C19 = experiment: as above; assay type: in vitro ADME
Description: as §1

CYP2C8 = experiment: as above; assay type: in vitro ADME
Description: as §1

CYP2C9 [2] = experiment: as above; assay type: in vitro ADME; conditions: from Supersomal velocities with cytochrome b5 and CYP expression levels
Description: as §1

CYP2D6 = experiment: as above; assay type: in vitro ADME
Description: as §1

CYP2E1 = experiment: as above; assay type: in vitro ADME
Description: as §1

CYP3A4 = experiment: as above; assay type: in vitro ADME; conditions: from Supersomal velocities with cytochrome b5 and CYP expression levels
Description: as §1

CYP3A5 = experiment: as above; assay type: in vitro ADME
Description: as §1

CYP1A subfamily = experiment: Contribution of CYP to AAI oxidation in rat liver; assay type: in vitro ADME
Description: as §1

CYP1A1 [3] = experiment: Contribution of CYP to AAI oxidation in rat liver; assay type: in vitro ADME
Description: as §1

CYP2C subfamily = experiment: Contribution of CYP to AAI oxidation in rat liver; assay type: in vitro ADME
Description: as §1

CYP2C11 = experiment: Contribution of CYP to AAI oxidation in rat liver; assay type: in vitro ADME
Description: as §1

CYP2C6 = experiment: Contribution of CYP to AAI oxidation in rat liver; assay type: in vitro ADME
Description: as §1

human CYP1A2 = conditions: CYP1A2, with vs without cytochrome b5; cited from earlier work
CYP2C9 [4] = conditions: CYP2C9, with vs without cytochrome b5; cited from earlier work
[5] = test system: CYP enzymes of liver microsomes that oxidise (demethylate) AAI to AAIa; experiment: Effect of CYP inhibitors on AAI oxidation to AAIa by human liver microsomes; assay type: in vitro ADME; conditions: pH 7.4, probe AAI (10 μM), inhibitor 10 μM equimolar to AAI (10 μM), 0.1 nmol CYP, mean ± SD, n = 3, NI = no inhibition, read-out: AAIa Formation (% of Control without Inhibitor) Human Microsomes
Description: (§2) Incubation mixtures (250 μL) contained 100 mM potassium phosphate buffer (pH 7.4), 1 mM NADPH, 1 mg human or rat liver microsomal protein and 10 μM AAI [30, 43]. […] Control incubations were performed (i) without microsomal proteins; (ii) without NADPH; or (iii) without AAI. […] For Supersomes™, incubation mixtures (final volume 250 μL) consisted of 100 mM potassium phosphate buffer (pH 7.4), 1 mM NADP^+, 10 mM MgCl2, 10 mM D-glucose 6-phosphate, 1 U/mL D-glucose 6-phosphate dehydrogenase (NADPH-generating system), 50 nM CYPs in Supersomes™, and 10 μM AAI. Supersomes™ with POR alone were utilized as controls. AAI and its metabolites (i.e., AAIa) were extracted from incubation mixtures with 2 × 1 mL of ethyl acetate and evaporated to dryness; residues were dissolved in 30 μL of methanol and analyzed with reverse-phase HPLC as described.
(§3) Compounds were dissolved in 2.5 μL methanol (except for DDTC that was dissolved in distilled water) to yield final concentrations of 10 μM in the incubation mixtures. Inhibitors (10 μM) were incubated at 37 °C for 10 min with the NADPH-generating system prior to addition of 10 μM AAI, and then incubated for an additional 20 min at 37 °C. AAIa formation was analyzed by HPLC as described above.

[6] = test system: CYP enzymes of liver microsomes that oxidise (demethylate) AAI to AAIa; experiment: Effect of CYP inhibitors on AAI oxidation to AAIa by rat liver microsomes; assay type: in vitro ADME; conditions: male, Wistar, pH 7.4, probe AAI (10 μM), inhibitor 10 μM equimolar to AAI (10 μM), 0.1 nmol CYP, mean ± SD, n = 3, NI = no inhibition, read-out: AAIa Formation (% of Control without Inhibitor) Rat Microsomes
Description: Microsomal fractions were prepared from livers of ten male Wistar rats (AnLab, Prague, Czech Republic) by differential centrifugation as described previously.
as §2, §3

COc1cccc2c1cc([N+](=O)[O-])c1c(C(=O)O)cc3c(c12)OCO3 [AAI, aristolochic acid I]
Contribution to AAI oxidation to AAIa (CYP1A1 [1]): ~ 8.3%
Contribution to AAI oxidation to AAIa (CYP1A2): ~ 47.5%
Contribution to AAI oxidation to AAIa (CYP1B1): negligible
Contribution to AAI oxidation to AAIa (CYP2B6): negligible
Contribution to AAI oxidation to AAIa (CYP2C19): ~ 0.6%
Contribution to AAI oxidation to AAIa (CYP2C8): ~ 1.0%
Contribution to AAI oxidation to AAIa (CYP2C9 [2]): ~ 15.8%
Contribution to AAI oxidation to AAIa (CYP2D6): negligible
Contribution to AAI oxidation to AAIa (CYP2E1): ~ 1.1%
Contribution to AAI oxidation to AAIa (CYP3A4): ~ 10.5%
Contribution to AAI oxidation to AAIa (CYP3A5): negligible
Contribution to AAI oxidation to AAIa (CYP1A subfamily): ~ 17%
Contribution to AAI oxidation to AAIa (CYP1A1 [3]): ~ 1.7%
Contribution to AAI oxidation to AAIa (CYP2C subfamily): ~ 83%
Contribution to AAI oxidation to AAIa (CYP2C11): ~ 42%
Contribution to AAI oxidation to AAIa (CYP2C6): ~ 17%
Increase in AAIa formation by cytochrome b5 (human CYP1A2): not significant
Increase in AAIa formation by cytochrome b5 (CYP2C9 [4]): not significant

CCN(CC)C(=S)S [DDTC, diethyldithiocarbamate]
activity at 20 min, 10 μM [5]: 96 ± 5%
activity at 20 min, 10 μM [6]: 52 ± 4%

Cc1nc2c([nH]1)c(=O)n(C)c(=O)n2Cc1ccco1 [Furafylline, furafylline]
activity at 20 min, 10 μM [5]: 75 ± 4%
activity at 20 min, 10 μM [6]: 84 ± 5%

C=C[C@H]1C[N@@]2CC[C@H]1C[C@@H]2[C@@H](O)c1ccnc2ccc(OC)cc12 [Quinidine, quinidine]
activity at 20 min, 10 μM [5]: > 100%
activity at 20 min, 10 μM [6]: > 100%

Nc1ccc(S(=O)(=O)Nc2ccnn2-c2ccccc2)cc1 [Sulfaphenazole, sulfaphenazole]
activity at 20 min, 10 μM [5]: > 100%
activity at 20 min, 10 μM [6]: 68 ± 3%

O=c1cc(-c2ccccc2)oc2c1ccc1ccccc12 [α-Napththoflavone, α-Naphthoflavone]
activity at 20 min, 10 μM [5]: 89 ± 5%
activity at 20 min, 10 μM [6]: 85 ± 5%
